Where two headings read alike, the source gives them in different places.

Experiment [1] addresses T1, 11β-HSD1 (Homo sapiens, UniProt P28845). The note with it: for IC50: read-out: IC50 Range.
The target in experiment [2] is T1, 11β-HSD1. In words: biochemical. The note with it: for IC50: IC50 Range, Biological Test Example 1, microsomes from CHO cells overexpressing human 11β-HSD1.
The mark [3] stands for this setting: Biological Test Example 1, 100 nM compound, 0.1 µM.
The mark [4] stands for this setting: Biological Test Example 1, microsomes from CHO cells overexpressing human 11β-HSD1.
Where [5] appears, read: Biological Test Example 1, 111.1 nM compound, 0.1111 µM.
Where [6] appears, read: Biological Test Example 1, 100 nM, 0.1 µM.

T1 sequence (P28845 whole entry): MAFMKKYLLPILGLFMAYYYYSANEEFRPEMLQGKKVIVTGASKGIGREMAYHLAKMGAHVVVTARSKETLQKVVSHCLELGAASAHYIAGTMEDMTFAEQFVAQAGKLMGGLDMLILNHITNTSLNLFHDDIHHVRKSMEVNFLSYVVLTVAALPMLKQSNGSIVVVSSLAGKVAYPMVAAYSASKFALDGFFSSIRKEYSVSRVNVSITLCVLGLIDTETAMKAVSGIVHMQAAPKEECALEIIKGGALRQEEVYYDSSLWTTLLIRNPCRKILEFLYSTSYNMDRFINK

The term IC50 denotes the concentration needed to halve the response being measured. In general, inhibition refers to the drop in the measured response relative to a control, in per cent. Consider `C[C@@H](c1ccc(-c2ccc(F)cc2F)cc1)N1CC[C@](CC(O)CO)(c2ccc(F)cc2)OC1=O` (single isomer, unassigned) [EXAMPLE 52 Isomer 2], for which the “Average % inhibition at 100 nM” value at 11β-HSD1 [1] (setting [3]) worked out at 90.8%. The IC50 at 11β-HSD1 [1] (setting [4]) was less than 100 nM. The inhibition at 0.1111 µM at 11β-HSD1 [2] (read-out: Average % inhibition at 111.1 nM, Biological Test Example 1, 111.1 nM compound) came out at 97%.
As for `O=C1OC(CCO)(c2ccccc2)CCN1c1ccc(F)c(-c2ccc(F)cc2)c1` (single isomer, unassigned) [EXAMPLE 96 Isomer 1], the “Average % inhibition at 111.1 nM” value on 11β-HSD1 [1] (setting [5]) stood at 98.5%. For the same compound, the IC50 against 11β-HSD1 [2] was less than 100 nM. Further, the inhibition at 0.1 µM at 11β-HSD1 [2] (read-out: Average % inhibition at 100 nM, Biological Test Example 1, 100 nM compound) is 88.3%.
For `O=C1OC(CCO)(c2ccccc2)CCN1c1ccc(F)c(-c2ccc(F)cc2)c1` (single isomer, unassigned) [EXAMPLE 96 Isomer 2], at 11β-HSD1 [1] (setting [5]), the “Average % inhibition at 111.1 nM” value was 9.7%. For the same compound, the IC50 against 11β-HSD1 [2] was more than 1000 nM.
For `O=C1OC(CCO)(c2ccccc2F)CCN1c1cccc(-c2ccc(F)cc2)n1` (single isomer, unassigned) [EXAMPLE 104 Isomer 1], the “Average % inhibition at 111.1 nM” value at 11β-HSD1 [1] (setting [5]) is reported as 44.3%. On 11β-HSD1 [2], this compound returned an IC50 of 100 to 1000 nM.
For `CC(O)C[C@@]1(c2cccs2)CCN([C@@H](C)c2ccc(-c3ccc(F)cc3)cc2)C(=O)O1` (single isomer, unassigned) [EXAMPLE 167 Isomer 2], on 11β-HSD1 [1] (setting [5]), the “Average % inhibition at 111.1 nM” value stood at 77.2%. Further, the IC50 at 11β-HSD1 [1] (setting [4]) was less than 100 nM.
`C[C@@H](c1ccc(-c2ccc(F)cc2)cc1)N1CC[C@](CC(O)CO)(c2ccccc2)OC1=O` (single isomer, unassigned) [EXAMPLE 168 Isomer 2]: the “Average % inhibition at 100 nM” value at 11β-HSD1 [1] (setting [3]) is on record as 95.6%. Besides, on 11β-HSD1 [1] (setting [4]), the IC50 is less than 100 nM.
For `C[C@@H](c1ccc(-c2ccc(F)cc2F)cc1)N1CCC(CCCO)(c2cccs2)OC1=O` (single isomer, unassigned) [EXAMPLE 171 Isomer 2], the “Average % inhibition at 100 nM” value on 11β-HSD1 [1] (setting [3]) was determined as 68.6%. In addition, the concentration for half-maximal inhibition (IC50) at 11β-HSD1 [1] (setting [4]) was less than 100 nM.
The matching figures for `C[C@@H](c1ccc(-c2ccc(F)cc2F)cc1)N1CC[C@](CC(O)CO)(c2ccccc2)OC1=O` (single isomer, unassigned) [EXAMPLE 173 Isomer 2]: 94.5% and less than 100 nM.
Turning to `CC(C)C1(CCCO)CCN([C@@H](C)c2ccc(Cl)cc2)C(=O)O1` (single isomer, unassigned) [EXAMPLE 187 Isomer 2], at 11β-HSD1 [1] (0.1 µM), the “Average % inhibition at 100 nM” value is 46.4%. In addition, on 11β-HSD1 [1] (setting [4]), the half-maximal inhibitory concentration (IC50) is less than 100 nM.
In the case of `C=CCC1(c2ccc(F)cc2)CCN([C@@H](C)c2ccc(C)cc2)C(=O)O1` (single isomer, unassigned) [EXAMPLE 189 Isomer 2], the “Average % inhibition at 100 nM” value on 11β-HSD1 [1] (setting [3]) was 90.1%. At 11β-HSD1 [1] (setting [4]), the IC50 is less than 100 nM.
On to `C=CCC1(c2ccc(F)cc2)CCN([C@@H](C)c2ccc(OC)cc2)C(=O)O1` (single isomer, unassigned) [EXAMPLE 193 Isomer 2], for which the IC50 at 11β-HSD1 [1] (setting [4]) is less than 100 nM.
As to `C=CCC1(c2ccc(F)cc2)CCN([C@@H](C)c2ccc(Cl)cc2)C(=O)O1` (single isomer, unassigned) [EXAMPLE 196 Isomer 2], the “Average % inhibition at 100 nM” value at 11β-HSD1 [1] (setting [3]) stood at 98.9%. The IC50 at 11β-HSD1 [1] (setting [4]) is less than 100 nM.
The like results for `C[C@@H](C1CCCCC1)N1CC[C@](CC(O)CO)(c2ccc(F)cc2)OC1=O` (single isomer, unassigned) [EXAMPLE 197 Isomer 2] were, in that order, 82.1% and less than 100 nM.
Regarding `CC(C)C1(CCCO)CCN([C@@H](C)c2ccc(Br)cc2)C(=O)O1` (single isomer, unassigned) [EXAMPLE 200 Isomer 2], the IC50 on 11β-HSD1 [1] (setting [4]) is less than 100 nM.
Take `CC(O)C[C@]1(c2ccc(F)cc2)CCN([C@@H](C)c2ccc(Cl)cc2)C(=O)O1` (single isomer, unassigned) [EXAMPLE 203 Isomer 2]: the “Average % inhibition at 100 nM” value at 11β-HSD1 [1] (setting [3]) was 93.8%. Further, the IC50 at 11β-HSD1 [1] (setting [4]) was less than 100 nM.
The like results for `COc1ccc([C@H](C)N2CC[C@](CC(O)CO)(c3ccc(F)cc3)OC2=O)cc1` (single isomer, unassigned) [EXAMPLE 206 Isomer 2] were, in that order, 85.9% and less than 100 nM.
Consider `CC(C)C1(CCCO)CCN([C@@H](C)c2ccc(-c3ccc(F)cc3F)cc2)C(=O)O1` (single isomer, unassigned) [EXAMPLE 212 Isomer 2], for which the “Average % inhibition at 100 nM” value on 11β-HSD1 [1] (setting [3]) was determined as 82.6%. The IC50 at 11β-HSD1 [1] (setting [4]) was less than 100 nM.
The like results for `CC(O)C[C@]1(c2ccccc2)CCN([C@@H](C)c2ccc(-c3ccc(F)cc3)cc2)C(=O)O1` (single isomer, unassigned) [EXAMPLE 224 Isomer 2] were, in that order, 95.6% and less than 100 nM.
In the case of `C[C@@H](c1ccc(Br)cc1)N1CCC(CCCO)(c2ccc(F)cc2)OC1=O` (single isomer, unassigned) [EXAMPLE 227 Isomer 2], the IC50 on 11β-HSD1 [1] (setting [4]) was less than 100 nM.
Take `C[C@@H](c1ccc(-c2ccc(F)cc2F)cc1)N1CCC(CCO)(c2cccs2)OC1=O` (single isomer, unassigned) [EXAMPLE 233 Isomer 2]: the “Average % inhibition at 100 nM” value at 11β-HSD1 [1] (setting [3]) came to 64.1%. The IC50 on 11β-HSD1 [1] (setting [4]) was less than 100 nM.
Take `CC[C@@H](c1ccc(Br)cc1)N1CC[C@](CC(O)CO)(c2ccccc2)OC1=O` (single isomer, unassigned) [EXAMPLE 239 Isomer 2]: the “Average % inhibition at 100 nM” value at 11β-HSD1 [1] (setting [3]) worked out at 89.5%. Moreover, the half-inhibitory concentration (IC50) at 11β-HSD1 [1] (setting [4]) is less than 100 nM.
Regarding `CC[C@@H](c1ccc(Br)cc1)N1CC[C@](CC(O)CO)(c2ccc(F)cc2)OC1=O` (single isomer, unassigned) [EXAMPLE 255 Isomer 2], at 11β-HSD1 [1] (setting [3]), the “Average % inhibition at 100 nM” value is listed as 89.3%. Also, the IC50 at 11β-HSD1 [1] (setting [4]) was less than 100 nM.
For `C[C@@H](c1ccc(-c2ccc(F)cc2)cc1)N1CC[C@](CC(O)CNS(C)(=O)=O)(c2ccc(F)cc2)OC1=O` (single isomer, unassigned) [EXAMPLE 277 Isomer 2], the “Average % inhibition at 100 nM” value at 11β-HSD1 [1] (0.1 µM) was 65.6%. Also, the IC50 at 11β-HSD1 [1] was less than 100 nM.
Take `C[C@@H](c1ccc(-c2ccc(F)cc2)cc1)N1CC[C@](CC(O)CN(C)S(C)(=O)=O)(c2ccc(F)cc2)OC1=O` (single isomer, unassigned) [EXAMPLE 278 Isomer 2]: the “Average % inhibition at 100 nM” value on 11β-HSD1 [1] (setting [3]) was determined as 65.5%. Besides, the IC50 at 11β-HSD1 [1] (setting [4]) was less than 100 nM.
Consider `C=CCCC1(c2ccc(F)cc2)CCN([C@@H](C)c2ccc(OC(F)F)cc2)C(=O)O1` (single isomer, unassigned) [EXAMPLE 323 Isomer 2], for which the “Average % inhibition at 100 nM” value at 11β-HSD1 [1] (0.1 µM) was 100.9%. The 50% inhibitory concentration (IC50) at 11β-HSD1 [1] (setting [4]) is less than 100 nM.
In the case of `C[C@@H](c1ccc(Br)cc1)N1CCC(CCCO)(C(C)(C)C)OC1=O` (single isomer, unassigned) [EXAMPLE 335 Isomer 2], the “Average % inhibition at 100 nM” value on 11β-HSD1 [1] (setting [6]) is on record as 96.7%. The IC50 on 11β-HSD1 [1] (setting [4]) was less than 100 nM.
Regarding `C[C@@H](c1ccc(-c2ccc(F)cc2F)cc1)N1CCC(CCO)(C(C)(C)C)OC1=O` (single isomer, unassigned) [EXAMPLE 336 Isomer 2], on 11β-HSD1 [1] (setting [6]), the “Average % inhibition at 100 nM” value is 94.6%. For the same compound, on 11β-HSD1 [1] (setting [4]), the IC50 is less than 100 nM.
The matching figures for `C[C@@H](c1ccc(Br)cc1)N1CCC(CCO)(c2ccc(F)cc2F)OC1=O` (single isomer, unassigned) [EXAMPLE 365 Isomer 2]: 61.1% and less than 100 nM.
For `CC(O)C[C@]1(c2ccc(F)cc2)CCN([C@@H](C)c2ccc(Br)cc2)C(=O)O1` (single isomer, unassigned) [EXAMPLE 371 Isomer 2], at 11β-HSD1 [1] (setting [6]), the “Average % inhibition at 100 nM” value is on record as 97.4%. Besides, the IC50 at 11β-HSD1 [1] (setting [4]) was less than 100 nM.
The like results for `CC(O)CC[C@]1(c2ccc(F)cc2)CCN([C@@H](C)c2ccc(Cl)cc2)C(=O)O1` (single isomer, unassigned) [EXAMPLE 383 Isomer 2] were, in that order, 95.3% and less than 100 nM.
Turning to `CC(O)C[C@]1(c2ccc(F)cc2)CCN([C@@H](C)c2ccc(C(F)(F)F)cc2)C(=O)O1` (single isomer, unassigned) [EXAMPLE 388 Isomer 2], the “Average % inhibition at 100 nM” value at 11β-HSD1 [1] (setting [6]) is reported as 94.7%. On 11β-HSD1 [1] (setting [4]), the IC50 was less than 100 nM.
With `CC(O)CC[C@]1(c2ccc(F)cc2)CCN([C@@H](C)c2ccc(F)cc2)C(=O)O1` (single isomer, unassigned) [EXAMPLE 411 Isomer 2], at 11β-HSD1 [1] (setting [6]), the “Average % inhibition at 100 nM” value was 93.1%. For the same compound, the IC50 on 11β-HSD1 [1] (setting [4]) is less than 100 nM.
Take `CC(C[C@]1(c2ccc(F)cc2)CCN([C@@H](C)c2ccc(Br)cc2)C(=O)O1)C(N)=O` (single isomer, unassigned) [EXAMPLE 523 Isomer 2]: the “Average % inhibition at 100 nM” value on 11β-HSD1 [1] (setting [6]) came out at 85.4%. Moreover, the IC50 at 11β-HSD1 [1] (setting [4]) was less than 100 nM.
The matching figures for `CC(CO)C[C@]1(c2ccc(F)cc2)CCN([C@@H](C)c2ccc(Br)cc2)C(=O)O1` (single isomer, unassigned) [EXAMPLE 577 Isomer 2]: 94.7% and less than 100 nM.
On to “(R)-3-((S)-1-(2′,4′-difluorobiphenyl-4-yl)propyl)-6-(4-fluorophenyl)-6-(2-hydroxyethyl)-1,3-oxazinan-2-one [EXAMPLE 175 Isomer 2]”, for which, on 11β-HSD1 [1], the “Average % inhibition at 111.1 nM” value came to 25.8% and the IC50 is 100 to 1000 nM.
In the case of “(R)-6-(3-hydroxypropyl)-3-((S)-1-(4-methoxyphenyl)ethyl)-6-phenyl-1,3-oxazinan-2-one [EXAMPLE 282 Isomer 1]”, on 11β-HSD1 [1], the “Average % inhibition at 100 nM” value came to 94.0% and the IC50 is less than 100 nM.
As to “(S)-3-((S)-1-(2′,4′-difluorobiphenyl-4-yl)propyl)-6-(4-fluorophenyl)-6-(2-hydroxyethyl)-1,3-oxazinan-2-one [EXAMPLE 175 Isomer 1]”, on 11β-HSD1 [1], the “Average % inhibition at 111.1 nM” value was 93.7% and the IC50 is less than 100 nM.
Regarding “(S)-6-(3-hydroxypropyl)-3-((S)-1-(4-methoxyphenyl)ethyl)-6-phenyl-1,3-oxazinan-2-one [EXAMPLE 282 Isomer 2]”, on 11β-HSD1 [1], the “Average % inhibition at 100 nM” value worked out at 77.8% and the IC50 was less than 100 nM.

Values taken from patent US8575156B2, “Cyclic inhibitors of 11β-hydroxysteroid dehydrogenase 1” (Vitae Pharmaceuticals, Inc., priority 2007, dated 2013).
